Experimental findings from patent US20260200928A1, “THERAPEUTIC COMPOUNDS” (Sanofi, priority 2022, published 2026) are described below.

This experiment deals with T1, human IL-17A (Homo sapiens, UniProt Q16552).
T1 construct: purchased R&D Systems 7955-IL/CF
T1 sequence (Q16552 24-155): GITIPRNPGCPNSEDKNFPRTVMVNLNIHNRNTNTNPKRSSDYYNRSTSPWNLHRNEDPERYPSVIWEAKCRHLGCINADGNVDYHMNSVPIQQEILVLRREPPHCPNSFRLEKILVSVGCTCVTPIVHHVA
The experiment in a line: IL-17A AlphaLISA competition assay (block of IL-17A binding to its receptor IL-17RA). The conditions noted are these: mean IC50 (n≥2), block of IL-17A binding to IL-17RA. The method in brief: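 Bead-based AlphaLISA competition in PBS with 0.05% Tween-20 and 0.1% BSA: compound first meets human IL-17A (7.5 nM stock) for 30 min, then IL-17RA/Fc (5 nM stock) for 90 min, all at room temperature, before acceptor/donor bead capture. IC50 fitted 4-parameter, DMSO and 4 μM reference inhibitor as controls; at least duplicate.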
In general terms: Bead proximity is the source of the signal in Alpha formats.

Structures are written as SMILES.

The term IC50 denotes the midpoint of a concentration-inhibition curve. The compound `Cn1nccc1C(=O)N[C@H](C(=O)Nc1cc([C@H](NC(=O)CCC(F)(F)F)C2CC2)ccn1)C1CCC(F)(F)CC1` [Example 107, N—((S)-2-((4-((R)-cyclopropyl(4,4,4-trifluorobutanamido)methyl)pyridin-2-yl)amino)-1-(4,4-difluorocyclohexyl)-2-oxoethyl)-1-methyl-1H-pyrazole-5-carboxamide] came in with an IC50 of 177 nM.
Turning to `CCn1nccc1C(=O)N[C@H](C(=O)Nc1cc(C(NC(=O)CCC(F)(F)F)C2CC2)ccn1)C1CCC(F)(F)CC1` (stereo partly drawn) [Example 108, N-((1S)-2-((4-(cyclopropyl(4,4,4-trifluorobutanamido)methyl)pyridin-2-yl)amino)-1-(4,4-difluorocyclohexyl)-2-oxoethyl)-1-ethyl-1H-pyrazole-5-carboxamide], the IC50 is 33 nM.
The compound `O=C(CCC(F)(F)F)NC(c1ccnc(NC(=O)[C@@H](NC(=O)c2cocn2)C2CCC(F)(F)CC2)c1)C1CC1` (stereo partly drawn) [Example 109, N-((1S)-2-((4-(cyclopropyl(4,4,4-trifluorobutanamido)methyl)pyridin-2-yl)amino)-1-(4,4-difluorocyclohexyl)-2-oxoethyl)oxazole-4-carboxamide] registered an IC50 of 7800 nM.
The result for `CC(C)n1nccc1C(=O)N[C@H](C(=O)Nc1cc(C(NC(=O)CCC(F)(F)F)C2CC2)ccn1)C1CCC(F)(F)CC1` (stereo partly drawn) [Example 110, N-((1S)-2-((4-(cyclopropyl(4,4,4-trifluorobutanamido)methyl)pyridin-2-yl)amino)-1-(4,4-difluorocyclohexyl)-2-oxoethyl)-1-isopropyl-1H-pyrazole-5-carboxamide] reads 30 nM.
`Cn1ccnc1C(=O)N[C@H](C(=O)Nc1cc(C(NC(=O)CCC(F)(F)F)C2CC2)ccn1)C1CCC(F)(F)CC1` (stereo partly drawn) [Example 111, N-((1S)-2-((4-(cyclopropyl(4,4,4-trifluorobutanamido)methyl)pyridin-2-yl)amino)-1-(4,4-difluorocyclohexyl)-2-oxoethyl)-1-methyl-1H-imidazole-2-carboxamide] returned an IC50 of 6170 nM.
In turn, `COCC(c1ccnc(NC(=O)C(NC(=O)Cc2c(C)noc2C)C2CCC(C)CC2)c1)N1CC(C(F)(F)F)NC1=O` [Example 113, (2S)-2-(2-(3,5-dimethyl-isoxazol-4-yl)acetamido)-N-(4-(2-methoxy-1-((S)-2-oxo-4-(trifluoromethyl)-imidazolidin-1-yl)ethyl)-pyridin-2-yl)-2-((1r,4S)-4-methylcyclohexyl)-acetamide] had an IC50 of 1000 nM.
Turning to `C[C@H](OC(C)(C)C)[C@H](NC(=O)c1nonc1C1CC1)C(=O)Nc1cc(CN2C[C@@H](C(F)(F)F)NC2=O)ccn1` [Example 116, N-((2S,3S)-3-(tert-butoxy)-1-oxo-1-((4-(((S)-2-oxo-4-(trifluoromethyl)-imidazolidin-1-yl)methyl)pyridin-2-yl)amino)butan-2-yl)-4-cyclopropyl-1,2,5-oxadiazole-3-carboxamide], the IC50 was found to be 15400 nM.
For `CC(C)n1ccnc1C(=O)N[C@H](C(=O)Nc1cc(C(NC(=O)CCC(F)(F)F)C2CC2)ccn1)C1CCC(F)(F)CC1` (stereo partly drawn) [Example 117, N-((1S)-2-((4-(cyclopropyl(4,4,4-trifluorobutanamido)methyl)pyridin-2-yl)amino)-1-(4,4-difluorocyclohexyl)-2-oxoethyl)-1-isopropyl-1H-imidazole-2-carboxamide] the value was 723 nM; for `Cn1nccc1C(=O)N[C@H](C(=O)Nc1cc(OC2CCNC2=O)ccn1)[C@H]1CC[C@H](C)CC1` (stereo partly drawn) [Example 118, 1-methyl-N-((1S)-1-((1r,4S)-4-methylcyclohexyl)-2-oxo-2-((4-((2-oxopyrrolidin-3-yl)oxy)pyridin-2-yl)amino)ethyl)-1H-pyrazole-5-carboxamide], 8970 nM.
For `CC(C)n1nccc1C(=O)N[C@H](C(=O)Nc1cc(OC2CCNC2=O)ccn1)[C@H]1CC[C@H](C)CC1` (stereo partly drawn) [Example 119, 1-isopropyl-N-((1S)-1-((1r,4S)-4-methylcyclohexyl)-2-oxo-2-((4-((2-oxopyrrolidin-3-yl)oxy)pyridin-2-yl)amino)ethyl)-1H-pyrazole-5-carboxamide] the value was 3990 nM; for `CC(C)n1nccc1C(=O)N[C@H](C(=O)Nc1cc(CN2C[C@@H](C(F)(F)F)NC2=O)ccn1)[C@@H](C)OC(C)(C)C` [Example 127, N-((2S,3R)-3-(tert-butoxy)-1-oxo-1-((4-(((S)-2-oxo-4-(trifluoromethyl)-imidazolidin-1-yl)methyl)-pyridin-2-yl)amino)butan-2-yl)-1-isopropyl-1H-pyrazole-5-carboxamide], 440 nM.
The compound `Cc1nonc1C(=O)N[C@H](C(=O)Nc1cc(CN2C[C@@H](C(F)(F)F)NC2=O)ccn1)[C@@H](C)OC(C)(C)C` [Example 128, N-((2S,3R)-3-(tert-butoxy)-1-oxo-1-((4-(((S)-2-oxo-4-(trifluoromethyl)-imidazolidin-1-yl)methyl)-pyridin-2-yl)amino)butan-2-yl)-4-methyl-1,2,5-oxa-diazole-3-carboxamide] showed a half-maximal inhibitory concentration (IC50) of 2350 nM.
The result for `CCc1nonc1C(=O)N[C@H](C(=O)Nc1cc(CN2C[C@@H](C(F)(F)F)NC2=O)ccn1)[C@@H](C)OC(C)(C)C` [Example 129, N-((2S,3R)-3-(tert-butoxy)-1-oxo-1-((4-(((S)-2-oxo-4-(trifluoromethyl)-imidazolidin-1-yl)methyl)-pyridin-2-yl)amino)butan-2-yl)-4-ethyl-1,2,5-oxa-diazole-3-carboxamide] reads 533 nM; that for `CC(C)c1nocc1C(=O)N[C@H](C(=O)Nc1cc(CN2C[C@@H](C(F)(F)F)NC2=O)ccn1)[C@@H](C)OC(C)(C)C` [Example 130, N-((2S,3R)-3-(tert-butoxy)-1-oxo-1-((4-(((S)-2-oxo-4-(trifluoromethyl)-imidazolidin-1-yl)methyl)-pyridin-2-yl)amino)butan-2-yl)-3-isopropyl-isoxazole-4-carboxamide], 350 nM; that for `COCC(c1ccnc(NC(=O)[C@@H](NC(=O)c2ncncc2C)[C@H]2CC[C@H](C)CC2)c1)N1C[C@H](C(F)(F)F)NC1=O` (stereo partly drawn) [Example 135, N-((1S)-2-((4-(2-methoxy-1-((S)-2-oxo-4-(trifluoromethyl)imidazolidin-1-yl)ethyl)pyridin-2-yl)amino)-1-((1r,4S)-4-methylcyclohexyl)-2-oxoethyl)-5-methylpyrimidine-4-carboxamide], 1460 nM.
The result for `[2H]C(c1ccnc(NC(=O)[C@@H](NC(=O)OC(C)(C)C)[C@H]2CC[C@H](C)CC2)c1)N1C[C@@H](C(F)(F)F)NC1=O` (stereo partly drawn) [Example 151, Tert-butyl ((1S)-1-((1r,4S)-4-methylcyclohexyl)-2-oxo-2-((4-(((S)-2-oxo-4-(trifluoromethyl)-imidazolidin-1-yl)methyl-d)pyridin-2-yl)amino)ethyl)carbamate] reads 401 nM; that for `C[C@H]1CC[C@H]([C@H](NC(=O)c2nonc2C2CC2)C(=O)Nc2cc(C[C@@H]3C[C@@H](C(F)(F)F)NC3=O)ccn2)CC1` [Example 152, 4-cyclopropyl-N—((S)-1-((1r,4S)-4-methylcyclohexyl)-2-oxo-2-((4-(((3R,5S)-2-oxo-5-(trifluoromethyl)pyrrolidin-3-yl)methyl)pyridin-2-yl)amino)ethyl)-1,2,5-oxadiazole-3-carboxamide], 2030 nM.
In the case of `CCn1nccc1C(=O)N[C@H](C(=O)Nc1cc(C[C@@H]2C[C@@H](C(F)(F)F)NC2=O)ccn1)[C@H]1CC[C@H](C)CC1` [Example 153, 1-ethyl-N—((S)-1-((1r,4S)-4-methylcyclohexyl)-2-oxo-2-((4-(((3R,5S)-2-oxo-5-(trifluoromethyl)pyrrolidin-3-yl)methyl)pyridin-2-yl)amino)ethyl)-1H-pyrazole-5-carboxamide], the IC50 was found to be 171 nM.
The result for `CC(C)n1nccc1C(=O)N[C@H](C(=O)Nc1cc(C[C@@H]2C[C@@H](C(F)(F)F)NC2=O)ccn1)[C@H]1CC[C@H](C)CC1` [Example 154, 1-isopropyl-N—((S)-1-((1r,4S)-4-methylcyclohexyl)-2-oxo-2-((4-(((3R,5S)-2-oxo-5-(trifluoromethyl)pyrrolidin-3-yl)methyl)pyridin-2-yl)amino)ethyl)-1H-pyrazole-5-carboxamide] reads 527 nM; that for `CCn1nccc1C(=O)N[C@H](C(=O)Nc1cc(C[C@H]2C[C@@H](C(F)(F)F)NC2=O)ccn1)[C@H]1CC[C@H](C)CC1` [Example 155, 1-ethyl-N—((S)-1-((1r,4S)-4-methylcyclohexyl)-2-oxo-2-((4-(((3S,5S)-2-oxo-5-(trifluoromethyl)pyrrolidin-3-yl)methyl)pyridin-2-yl)amino)ethyl)-1H-pyrazole-5-carboxamide], 29 nM.
`CC(C)n1nccc1C(=O)N[C@H](C(=O)Nc1cc(C[C@H]2C[C@@H](C(F)(F)F)NC2=O)ccn1)[C@H]1CC[C@H](C)CC1` [Example 156, 1-isopropyl-N—((S)-1-((1r,4S)-4-methylcyclohexyl)-2-oxo-2-((4-(((3S,5S)-2-oxo-5-(trifluoromethyl)pyrrolidin-3-yl)methyl)pyridin-2-yl)amino)ethyl)-1H-pyrazole-5-carboxamide] came in with an IC50 of 53 nM.
Compound `CCc1cnoc1C(=O)N[C@H](C(=O)Nc1cc(C(CC(F)(F)F)NC(=O)CCC(F)(F)F)ccn1)C1CCC(F)(F)CC1` (stereo partly drawn) [Example 157, N-((1S)-1-(4,4-difluorocyclohexyl)-2-oxo-2-((4-(3,3,3-trifluoro-1-(4,4,4-trifluorobutanamido)propyl)pyridin-2-yl)amino)ethyl)-4-ethylisoxazole-5-carboxamide] returned an IC50 of 117 nM.
